Where no end group is shown, it is not given here.
How the values were obtained:
Jurkat cell cultures = assay: Nef peptide apoptosis screen (TUNEL); format: cell-based; conditions: 24 hours; for apoptosis induced by Nef 20 mer peptides: 10 ng/ml
Protocol: Apoptosis generates DNA free ends which can be labeled in situ using terminal deoxynucleotidyl-transferase (TdT), incorporating an exogenously added labeled nucleotide to the DNA strand. This label can then be visualized directly by fluorescence or indirectly using anti-FITC-peroxidase, and a calorimetric assay. Cells on coverslips were washed with PBS, and fixed for 30 minutes at RT with 4% paraformaldehyde, in PBS, pH 7.4. They were then washed with PBS, and permeabilized with 0.1% Triton X-100 for 10 minutes at room temperature (RT). The slides were rinsed twice with PBS, and air dried for 2 minutes. Then, we followed precisely the manufacturers procedure for TUNEL staining the slides (manufacturer's procedure for the In Situ Cell Death Detection Kit, AP; Boehringer Mannheim, Indianapolis, Ind.). Total cell counts were determined by counterstaining fixed cultures with 20 μg/ml of Hoechst 33258. All specimens were observed by epifluorescence on a computer-controlled microscope system based on a Zeiss Axioskop microscope (Carl Zeiss, Thornwood, N.Y.), and the images were obtained and examined using a charged coupled device (CCD) camera, MagnaFire, model S99806 (Olympus American, Melville, N.Y.). Images were examined using Image-Pro Plus 4.1 for Windows (Media Cybernetics, Silver Springs, Md.) software.
Nef peptides retain much of the binding and signaling activity of the full molecule. A set of 20 mer peptides with 10 aa overlaps, spanning the Nef protein (205 aa), were obtained from the AIDS Reagent Program. Jurkat cell cultures were exposed to each of the Nef peptides at 10 ng/ml for 24 hours, and screened for apoptosis. One peak of apoptosis was observed spanning peptide aa31-50 to […], peaking at aa41-60 and aa51-70. […] Two regions of the Nef protein that induce apoptosis were identified; (1) a major apoptotic peak centering on aa50-60 (motif 1); (2) a minor peak centering on aa170-180 (motif 2). (aa sequence from HIV-1B clade NL403, Ass. No. AF070521) To determine the specificity of the apoptotic motifs, two 11 mer peptides spanning motif 1, were made, one with the correctly ordered sequence (Nef Motif 1-[…]) (Seq. ID No. 17), and the other with the correct amino acids scrambled in random order (Nef scMotif 1-[…]) (Seq. ID No. 18). Jurkat cell cultures were exposed to each of the two peptides at 8 ng/ml for 24 hours, and screened for apoptosis by TUNEL assay. Nef Motif 1 peptide induced 82% of the apoptosis observed using the full Nef protein. […] Thus, (a) Nef aa50-60 is sufficient to bind and induce an apoptotic signal; (b) induction of apoptosis is primary sequence specific. In some of the studies disclosed herein the Nef Motif 1 having an extra acid, namely […] (Seq. ID No. 19) was administered. In this report, Seq. ID No. 17 and Seq. ID No. 19 are both referred to as M-1 or Nef Motif-1 peptide.

thymus = assay: Mouse thymus apoptosis after ip peptide for one month; format: in vivo, mice; conditions: ip injection for one month
Protocol: Nef motif 1 was administered to mice for one month by ip injection with either Nef motif 1 (Seq. ID No. 19), the 11 mer sequence or the scrambled apoptotic sequence Seq. ID No. 18. […] This provides further indication of the ability of the Nef protein to inhibit immune response related to CD4+ peripheral blood lymphocytes.

CXCR4 receptor = target: T1, CXCR4 receptor (Homo sapiens, UniProt P61073); assay: Fluorescent binding assay with Flc labeled M1 peptide on transfected MDA-MB-468 cells
T1 construct: transiently transfected with a CXCR4 cDNA clone; expressed in transfected cells; host or cells: MDA-MB-468 (human breast tumour line, lacks endogenous CXCR4), transient transfection
Protocol: Specific physical binding to CXCR4 was assayed. The above transfection experiment (MDA-MB-468 cultures either untransfected, or transiently transfected with a CXCR4 cDNA clone, empty vector, or CCR5 cDNA clone) was assayed in the fluorescent binding assay with the Flc labeled M1 peptide.

peripheral lymphocytes = assay: KLH-M1 pre-immunization and Nef peptide challenge: PBL depletion and humoral response; format: in vivo, mice
Protocol: Nef Motif 1 peptides linked to keyhole limpet […] (KLH) were administered to 9 mice. Subsequently, the pre-immunized mice and the naive mice were either unchallenged or challenged with Nef peptide for a month. The mice were sacrificed and the PBLs collected.

T1 sequence (P61073 whole entry): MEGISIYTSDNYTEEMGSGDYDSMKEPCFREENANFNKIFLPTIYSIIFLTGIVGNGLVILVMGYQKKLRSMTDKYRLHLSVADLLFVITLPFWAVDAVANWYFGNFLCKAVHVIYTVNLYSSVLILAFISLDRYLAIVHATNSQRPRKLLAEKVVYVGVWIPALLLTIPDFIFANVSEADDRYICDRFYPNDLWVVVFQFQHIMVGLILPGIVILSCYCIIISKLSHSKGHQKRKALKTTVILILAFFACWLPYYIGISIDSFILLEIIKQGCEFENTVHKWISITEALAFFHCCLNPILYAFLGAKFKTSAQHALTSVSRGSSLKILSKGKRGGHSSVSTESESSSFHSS

Substance: ALAETCQNAWA [Nef scMotif 1, Motif 1 amino acids scrambled in random order, reference compound]
- apoptosis (TUNEL) (Jurkat cell cultures; 8 ng/ml, compared with untreated control): only background levels of apoptosis
- apoptosis in the thymus (thymus): No apoptosis

Substance: Flc-M1 peptide: Flc labeled M1 peptide used in the fluorescent binding assay (NAACAWLEAQ; also: Flc label, place not given here)
- binding of the Flc-M1 peptide (CXCR4 receptor; MDA-MB-468 cells transiently transfected with CCR5 cDNA): refractory to binding
- binding of the Flc-M1 peptide (CXCR4 receptor; MDA-MB-468 cells transiently transfected with empty vector): refractory to binding
- binding of the Flc-M1 peptide (CXCR4 receptor; MDA-MB-468 cells transiently transfected with the CXCR4 clone): significant binding
- binding of the Flc-M1 peptide (CXCR4 receptor; untransfected MDA-MB-468 cells): refractory to binding

Substance: NAACAWLEAQ [Nef Motif 1, Peptide spanning apoptotic motif 1 (aa50-60) of HIV-1 Nef]
- apoptosis relative to that observed using the full Nef protein (Jurkat cell cultures; 8 ng/ml, TUNEL): 82%
- peripheral lymphocyte depletion (peripheral lymphocytes; mice challenged with Nef peptide for a month, PBLs collected): induced peripheral lymphocyte depletion
- protective humoral response against the Nef epitope (peripheral lymphocytes; mice, naive or pre-immunized): did not stimulate a resultant protective humoral response

Substance: TNAACAWLEAQ [Nef motif 1 (Seq. ID No. 19)]
- apoptosis in the thymus (thymus): Significant apoptosis

Substance: aa41-60: Nef 20 mer overlapping peptide, residues 41-60, AIDS Reagent Program (GAITSSNTAATNAACAWLEA; UniProt P04601 41-60, looked up, fragment)
- apoptosis induced by Nef 20 mer peptides (Jurkat cell cultures): peaking

Substance: aa51-70: Nef 20 mer overlapping peptide, residues 51-70, AIDS Reagent Program
- apoptosis induced by Nef 20 mer peptides (Jurkat cell cultures): peaking

Substance: aa161-180: Nef 20 mer overlapping peptide, residues 161-180, AIDS Reagent Program (NTSLLHPVSLHGMDDPEREV; UniProt P04601 161-180, looked up, fragment)
- apoptosis induced by Nef 20 mer peptides (Jurkat cell cultures): second, smaller apoptotic peak

Substance: aa171-190: Nef 20 mer overlapping peptide, residues 171-190, AIDS Reagent Program (HGMDDPEREVLEWRFDSRLA; UniProt P04601 171-190, looked up, fragment)
- apoptosis induced by Nef 20 mer peptides (Jurkat cell cultures): second, smaller apoptotic peak

Source: patent publication US7943139B2, “Methods of generating a humoral immune response against human immunodeficiency virus (HIV) comprising administering Nef apoptotic motif-containing polypeptide-conjugates” (priority 2004, dated 2011)
